Experimental data: patent publication US20260297085A1, “1 H-PYRROLO[2,3-B]PYRIDIN-4-YL]-2-OXOPYRROLIDINE-3-CARBONITRILE DERIVATIVES AS TYROSINE KINASE 2 (TYK2) INHIBITORS FOR THE TREATMENT OF INFLAMMATORY DISEASES” (BIOGEN MA INC., priority 2023, published 2026)
pIC50: −log10 of the molar value. Structures can show the parent of a compound that is named as a salt.

Key:
[1] = molecular target: T1, human TYK2 kinase domain (JH1) (Homo sapiens, UniProt P29597); test: JH1 biochemical assay for TYK2 (ADP-Glo kinase assay, recombinant JH1 catalytic domain, JAK3-974 peptide, 10 μM ATP)
T1 construct: recombinantly generated catalytic kinase (also known as JH1) domain of human JAK1, JAK2, JAK3 and TYK2
T1 sequence (P29597 897-1176 limits assumed): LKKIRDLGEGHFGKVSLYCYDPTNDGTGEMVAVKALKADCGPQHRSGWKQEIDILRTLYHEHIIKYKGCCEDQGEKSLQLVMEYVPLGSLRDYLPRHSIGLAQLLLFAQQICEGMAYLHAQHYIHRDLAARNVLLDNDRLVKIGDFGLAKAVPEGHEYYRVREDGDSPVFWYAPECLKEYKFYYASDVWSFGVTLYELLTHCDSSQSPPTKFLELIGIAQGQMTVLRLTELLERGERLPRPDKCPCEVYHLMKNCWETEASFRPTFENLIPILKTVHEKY
In short: (§1)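 Luminescent ADP read-out after residual ATP depletion, 100 min reaction. Kinase domain concentrations were 4 nM (JAK1), 0.2 nM (JAK2), 0.3 nM (JAK3) and 2 nM (TYK2), each with 50 μM peptide. IC50 values came from 4-parameter logistic fits over 11 points, 3-fold steps, top 10 μM or 1 μM.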

[2] = molecular target: T2, human JAK1 kinase domain (JH1) (Homo sapiens, UniProt P23458); test: JH1 biochemical assay for JAK1 (ADP-Glo kinase assay, recombinant JH1 catalytic domain, JAK3-342 peptide, 35 μM ATP)
T2 construct: recombinantly generated catalytic kinase (also known as JH1) domain of human JAK1, JAK2, JAK3 and TYK2
T2 sequence (P23458 875-1153 limits assumed): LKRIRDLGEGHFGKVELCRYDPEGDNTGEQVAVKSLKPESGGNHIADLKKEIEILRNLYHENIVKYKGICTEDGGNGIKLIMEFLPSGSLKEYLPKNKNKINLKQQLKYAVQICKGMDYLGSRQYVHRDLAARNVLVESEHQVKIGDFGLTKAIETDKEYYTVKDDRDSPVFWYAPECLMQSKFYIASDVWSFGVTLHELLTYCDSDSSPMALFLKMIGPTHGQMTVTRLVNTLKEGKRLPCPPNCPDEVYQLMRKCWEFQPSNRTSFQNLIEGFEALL
In short: as §1

[3] = molecular target: T3, human JAK2 kinase domain (JH1) (Homo sapiens, UniProt O60674); test: JH1 biochemical assay for JAK2 (ADP-Glo kinase assay, recombinant JH1 catalytic domain, JAK3-974 peptide, 15 μM ATP)
T3 construct: recombinantly generated catalytic kinase (also known as JH1) domain of human JAK1, JAK2, JAK3 and TYK2
T3 sequence (O60674 849-1124 limits assumed): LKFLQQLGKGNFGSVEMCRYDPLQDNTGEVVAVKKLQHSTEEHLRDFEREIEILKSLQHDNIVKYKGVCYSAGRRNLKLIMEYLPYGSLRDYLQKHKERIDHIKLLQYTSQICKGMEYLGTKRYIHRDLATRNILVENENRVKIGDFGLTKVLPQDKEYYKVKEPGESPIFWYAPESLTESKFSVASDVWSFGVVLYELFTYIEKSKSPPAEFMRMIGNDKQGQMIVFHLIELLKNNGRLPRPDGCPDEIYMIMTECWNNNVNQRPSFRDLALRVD
In short: as §1

[4] = molecular target: T4, human JAK3 kinase domain (JH1) (Homo sapiens, UniProt P52333); test: JH1 biochemical assay for JAK3 (ADP-Glo kinase assay, recombinant JH1 catalytic domain, JAK3-974 peptide, 4 μM ATP)
T4 construct: recombinantly generated catalytic kinase (also known as JH1) domain of human JAK1, JAK2, JAK3 and TYK2
T4 sequence (P52333 822-1111 limits assumed): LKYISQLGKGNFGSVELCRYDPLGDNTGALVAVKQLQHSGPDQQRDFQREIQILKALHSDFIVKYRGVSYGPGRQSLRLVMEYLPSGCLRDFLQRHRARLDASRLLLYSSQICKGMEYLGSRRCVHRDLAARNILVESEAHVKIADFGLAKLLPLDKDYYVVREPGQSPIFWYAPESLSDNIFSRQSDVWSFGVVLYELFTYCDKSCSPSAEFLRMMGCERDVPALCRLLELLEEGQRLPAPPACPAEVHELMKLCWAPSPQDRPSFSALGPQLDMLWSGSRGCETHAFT
In short: as §1

[5] = molecular target: Tyk2 kinase activity on STAT4 in NK92 cells (Homo sapiens, UniProt P29597); test: pSTAT4 cell assay (MSD; NK92 cells, 30 ng/mL IL2 stimulation); type: cell-based; details: 30 ng/mL IL2, 15 minutes
Tyk2 kinase activity on STAT4 in NK92 cells, sequence (P29597 whole entry): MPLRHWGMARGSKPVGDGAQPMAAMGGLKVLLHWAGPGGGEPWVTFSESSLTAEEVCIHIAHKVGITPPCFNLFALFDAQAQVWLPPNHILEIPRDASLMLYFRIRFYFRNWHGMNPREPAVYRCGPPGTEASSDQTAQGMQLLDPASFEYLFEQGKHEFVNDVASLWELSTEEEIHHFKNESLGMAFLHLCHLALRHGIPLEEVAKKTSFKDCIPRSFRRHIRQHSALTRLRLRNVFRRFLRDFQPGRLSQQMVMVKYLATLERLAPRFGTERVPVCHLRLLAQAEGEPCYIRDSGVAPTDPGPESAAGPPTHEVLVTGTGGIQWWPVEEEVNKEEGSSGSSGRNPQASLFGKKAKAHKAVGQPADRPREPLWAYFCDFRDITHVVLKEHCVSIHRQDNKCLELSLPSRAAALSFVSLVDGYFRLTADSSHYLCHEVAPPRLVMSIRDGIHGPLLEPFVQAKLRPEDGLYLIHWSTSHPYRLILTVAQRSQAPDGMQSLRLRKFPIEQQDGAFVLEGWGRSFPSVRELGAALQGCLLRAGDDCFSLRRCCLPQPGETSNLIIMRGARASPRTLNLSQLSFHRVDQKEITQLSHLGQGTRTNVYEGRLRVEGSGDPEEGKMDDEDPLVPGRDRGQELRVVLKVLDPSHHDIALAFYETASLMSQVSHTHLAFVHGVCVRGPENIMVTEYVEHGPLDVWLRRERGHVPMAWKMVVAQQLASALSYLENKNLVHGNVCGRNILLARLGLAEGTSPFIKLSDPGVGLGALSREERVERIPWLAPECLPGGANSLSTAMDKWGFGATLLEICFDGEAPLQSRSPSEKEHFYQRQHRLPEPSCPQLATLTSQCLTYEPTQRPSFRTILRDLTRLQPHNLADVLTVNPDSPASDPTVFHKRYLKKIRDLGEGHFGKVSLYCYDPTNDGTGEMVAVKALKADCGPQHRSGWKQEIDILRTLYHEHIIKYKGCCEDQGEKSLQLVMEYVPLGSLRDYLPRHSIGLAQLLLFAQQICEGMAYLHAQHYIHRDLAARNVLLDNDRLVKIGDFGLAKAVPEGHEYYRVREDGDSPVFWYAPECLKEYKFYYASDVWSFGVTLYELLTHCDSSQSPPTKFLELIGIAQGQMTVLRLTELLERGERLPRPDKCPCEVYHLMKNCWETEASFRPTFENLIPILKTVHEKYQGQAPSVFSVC
In short: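 IC50 values derive from 4-parameter logistic fits of normalized percent activity against log compound concentration. Phospho-STAT was measured by MSD with anti-STAT4 antibodies after 15 min of 30 ng/mL IL2 in serum-starved NK92 cells pretreated 1 hr with compound.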

[6] = molecular target: JAK2 kinase activity on STAT5 in TF1 cells (Homo sapiens, UniProt O60674); test: pSTAT5 cell assay (MSD; TF1 cells, 30 ng/mL IL-3 stimulation); type: cell-based; details: 30 ng/mL IL-3, 15 minutes
JAK2 kinase activity on STAT5 in TF1 cells, sequence (O60674 whole entry): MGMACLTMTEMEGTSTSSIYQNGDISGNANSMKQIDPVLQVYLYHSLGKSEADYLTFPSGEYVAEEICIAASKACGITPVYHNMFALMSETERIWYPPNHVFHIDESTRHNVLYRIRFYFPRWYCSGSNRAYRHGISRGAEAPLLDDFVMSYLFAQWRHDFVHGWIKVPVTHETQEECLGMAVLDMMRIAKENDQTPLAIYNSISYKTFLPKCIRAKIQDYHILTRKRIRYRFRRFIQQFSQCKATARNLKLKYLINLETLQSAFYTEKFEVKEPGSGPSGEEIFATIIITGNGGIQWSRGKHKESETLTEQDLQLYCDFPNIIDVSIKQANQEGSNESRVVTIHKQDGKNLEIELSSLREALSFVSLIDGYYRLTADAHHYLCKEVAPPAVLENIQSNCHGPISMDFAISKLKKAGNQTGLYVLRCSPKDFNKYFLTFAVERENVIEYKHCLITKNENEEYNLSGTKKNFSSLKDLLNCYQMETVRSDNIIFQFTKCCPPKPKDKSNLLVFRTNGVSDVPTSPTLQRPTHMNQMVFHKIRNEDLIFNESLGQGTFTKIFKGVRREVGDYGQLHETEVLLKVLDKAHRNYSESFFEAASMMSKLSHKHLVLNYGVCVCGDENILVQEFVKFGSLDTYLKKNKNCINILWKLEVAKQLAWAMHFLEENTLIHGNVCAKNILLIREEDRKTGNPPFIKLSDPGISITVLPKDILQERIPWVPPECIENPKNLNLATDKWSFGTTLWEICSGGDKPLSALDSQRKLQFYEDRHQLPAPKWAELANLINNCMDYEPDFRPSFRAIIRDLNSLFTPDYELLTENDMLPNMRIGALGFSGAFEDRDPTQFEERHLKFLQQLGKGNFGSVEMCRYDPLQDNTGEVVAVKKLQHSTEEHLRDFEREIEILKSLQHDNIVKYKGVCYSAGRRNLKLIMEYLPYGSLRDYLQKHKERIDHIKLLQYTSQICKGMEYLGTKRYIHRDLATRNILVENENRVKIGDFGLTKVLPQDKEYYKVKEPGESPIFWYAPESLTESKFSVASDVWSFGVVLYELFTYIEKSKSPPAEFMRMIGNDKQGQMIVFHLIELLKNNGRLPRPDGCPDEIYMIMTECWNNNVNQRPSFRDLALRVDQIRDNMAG
In short: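 Serum-starved TF1 cells with native JAK2/STAT5 were pretreated 1 h with compound (10-point four-fold dilutions from 10 μM), then stimulated 15 min with 30 ng/mL IL-3. pSTAT5 in lysates quantified by MSD immunoassay; normalized percent activity fitted to a 4-parameter logistic curve for IC50.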

[7] = molecular target: JAK1 kinase activity on STAT3 in TF1 cells (Homo sapiens, UniProt P23458); test: pSTAT3 cell assay (MSD; TF1 cells, 30 ng/mL IL-6 stimulation); type: cell-based; details: 30 ng/mL IL-6, 15 minutes
JAK1 kinase activity on STAT3 in TF1 cells, sequence (P23458 whole entry): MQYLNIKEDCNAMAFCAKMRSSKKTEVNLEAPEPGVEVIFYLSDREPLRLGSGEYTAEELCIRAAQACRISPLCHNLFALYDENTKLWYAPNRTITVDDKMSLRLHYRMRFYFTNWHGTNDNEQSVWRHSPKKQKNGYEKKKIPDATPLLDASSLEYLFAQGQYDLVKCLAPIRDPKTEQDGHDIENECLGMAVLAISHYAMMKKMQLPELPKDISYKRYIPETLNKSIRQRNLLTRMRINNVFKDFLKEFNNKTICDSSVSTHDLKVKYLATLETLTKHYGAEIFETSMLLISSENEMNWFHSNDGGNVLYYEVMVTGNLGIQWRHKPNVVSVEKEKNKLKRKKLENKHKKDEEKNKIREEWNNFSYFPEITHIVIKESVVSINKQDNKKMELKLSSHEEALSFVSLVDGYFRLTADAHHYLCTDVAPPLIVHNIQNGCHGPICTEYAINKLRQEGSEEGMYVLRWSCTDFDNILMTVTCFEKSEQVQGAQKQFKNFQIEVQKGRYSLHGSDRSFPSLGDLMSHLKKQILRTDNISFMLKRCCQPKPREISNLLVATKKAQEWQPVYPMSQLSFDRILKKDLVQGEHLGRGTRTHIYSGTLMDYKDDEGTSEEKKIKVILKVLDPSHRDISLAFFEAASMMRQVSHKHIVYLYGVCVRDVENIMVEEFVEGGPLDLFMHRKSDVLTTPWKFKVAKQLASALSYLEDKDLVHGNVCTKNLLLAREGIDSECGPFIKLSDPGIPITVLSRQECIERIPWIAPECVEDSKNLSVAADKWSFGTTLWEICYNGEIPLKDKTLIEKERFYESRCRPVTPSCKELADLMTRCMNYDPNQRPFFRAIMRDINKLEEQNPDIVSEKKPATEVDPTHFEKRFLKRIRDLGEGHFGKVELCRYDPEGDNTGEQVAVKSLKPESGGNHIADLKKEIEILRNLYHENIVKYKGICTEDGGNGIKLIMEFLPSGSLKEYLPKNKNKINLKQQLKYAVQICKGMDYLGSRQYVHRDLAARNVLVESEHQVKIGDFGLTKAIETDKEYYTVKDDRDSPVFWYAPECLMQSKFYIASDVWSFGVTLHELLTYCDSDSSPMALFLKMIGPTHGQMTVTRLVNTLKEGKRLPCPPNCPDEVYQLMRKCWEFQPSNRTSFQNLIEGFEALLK
In short: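 Readout is pSTAT3 in lysates, quantified on an MSD plate assay using anti-STAT3 antibodies. Before lysis, TF1 cells had been serum-starved, exposed to compound for 1 hour across ten four-fold dilutions starting at 10 μM, and given IL-6 for 15 minutes.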

pIC50 ([1]; TYK2 JH1, ADP-Glo)	pIC50 ([2]; JAK1 JH1, ADP-Glo)	pIC50 ([3]; JAK2 JH1, ADP-Glo)	pIC50 ([4]; JAK3 JH1, ADP-Glo)	pIC50 [5]	pIC50 [6]	pIC50 [7]	pIC50 ([1]; JH1 kinase domain, ADP-Glo)	pIC50 ([2]; JH1 kinase domain, ADP-Glo)	pIC50 ([3]; JH1 kinase domain, ADP-Glo)	pIC50 ([4]; JH1 kinase domain, ADP-Glo)	SMILES
> 8.30	6.00 to 7.00	6.00 to 7.00	> 7.00	< 7.00	5.30 to 6.00	5.30 to 6.00					C[C@@H]1CN(c2nc(-c3cnn(CC#N)c3)cn3ncc(F)c23)C(=O)[C@]1(C#N)C1CC1 [Example 220, (3R,4S)-1-(6-(1-(cyanomethyl)-1H-pyrazol-4-yl)-3-fluoropyrazolo[1,5-a]pyrazin-4-yl)-3-cyclopropyl-4-methyl-2-oxopyrrolidine-3-carbonitrile]
> 8.30	> 7.00	6.00 to 7.00	> 7.00	7.00 to 7.30	5.30 to 6.00	6.00 to 7.00					C[C@@H]1CN(c2cc(-c3cnn(C)c3)cc3ncsc23)C(=O)[C@]1(C#N)C1CC1 [Example 350, (3R,4S)-3-cyclopropyl-4-methyl-1-(5-(1-methyl-1H-pyrazol-4-yl)benzo[d]thiazol-7-yl)-2-oxopyrrolidine-3-carbonitrile]
				< 7.00	< 5.00	< 5.00	7.70 to 8.30	6.00 to 7.00	6.00 to 7.00	6.00 to 7.00	C[C@@H]1CN(c2nc(-c3cnn(C)c3)cn3ncc(Cl)c23)C(=O)[C@]1(C#N)C1CC1 [Example 206, (3R,4S)-1-(3-chloro-6-(1-methyl-1H-pyrazol-4-yl)pyrazolo[1,5-a]pyrazin-4-yl)-3-cyclopropyl-4-methyl-2-oxopyrrolidine-3-carbonitrile]
				< 7.00	< 5.00	< 5.00	7.70 to 8.30	6.00 to 7.00	6.00 to 7.00	6.00 to 7.00	C[C@@H]1CN(c2ccnn3cc(-c4cn(C)nn4)cc23)C(=O)[C@]1(C#N)C1CC1 [Example 112, (3R,4S)-3-cyclopropyl-4-methyl-1-(6-(1-methyl-1H-1,2,3-triazol-4-yl)pyrrolo[1,2-b]pyridazin-4-yl)-2-oxopyrrolidine-3-carbonitrile trifluoroacetate]
				< 7.00	< 5.00	5.00 to 5.30	7.70 to 8.30	6.00 to 7.00	6.00 to 7.00	6.00 to 7.00	C[C@@H]1CN(c2ccnn3cc(-c4ccc(CC#N)cn4)cc23)C(=O)[C@]1(C#N)C1CC1 [Example 127, (3R,4S)-1-(6-(5-(cyanomethyl)pyridin-2-yl)pyrrolo[1,2-b]pyridazin-4-yl)-3-cyclopropyl-4-methyl-2-oxopyrrolidine-3-carbonitrile trifluoroacetate]
> 8.30	> 7.00	6.00 to 7.00	> 7.00	7.00 to 7.30	5.30 to 6.00	6.00 to 7.00					Cc1ncc(-c2cn3nccc3c(N3C[C@@H](C)[C@@](C#N)(C4CC4)C3=O)n2)s1 [Example 239, (3R,4S)-3-cyclopropyl-4-methyl-1-(6-(2-methylthiazol-5-yl)pyrazolo[1,5-a]pyrazin-4-yl)-2-oxopyrrolidine-3-carbonitrile]
> 8.30	> 7.00	> 7.00	> 7.00	7.00 to 7.30	5.30 to 6.00	6.00 to 7.00					C[C@@H]1CN(c2nc(-c3cnn([C@H]4C[C@@](C)(C#N)C4)c3)cn3ncc(F)c23)C(=O)[C@]1(C#N)C1CC1 [Example 307, (3R,4S)-1-(6-(1-((1s,3S)-3-cyano-3-methylcyclobutyl)-1H-pyrazol-4-yl)-3-fluoropyrazolo[1,5-a]pyrazin-4-yl)-3-cyclopropyl-4-methyl-2-oxopyrrolidine-3-carbonitrile]
				7.30 to 7.70	5.30 to 6.00	6.00 to 7.00	> 8.30	> 7.00	> 7.00	> 7.00	CC(C)n1cc(-c2cc3c(N4C[C@@H](C)[C@@](C#N)(C5CC5)C4=O)ccnn3c2)cn1 [Example 167, (3R,4S)-3-cyclopropyl-1-(6-(1-isopropyl-1H-pyrazol-4-yl)pyrrolo[1,2-b]pyridazin-4-yl)-4-methyl-2-oxopyrrolidine-3-carbonitrile]
				7.00 to 7.30	5.00 to 5.30	6.00 to 7.00	7.70 to 8.30	> 7.00	6.00 to 7.00	6.00 to 7.00	C[C@@H]1CN(c2ccnn3cc(-c4ccc5cnn(C)c5c4)cc23)C(=O)[C@]1(C#N)C1CC1 [Example 68, (3R,4S)-3-cyclopropyl-4-methyl-1-(6-(1-methyl-1H-indazol-6-yl)pyrrolo[1,2-b]pyridazin-4-yl)-2-oxopyrrolidine-3-carbonitrile]
> 8.30	6.00 to 7.00	6.00 to 7.00	6.00 to 7.00	7.00 to 7.30	5.00 to 5.30	5.00 to 5.30					C[C@@H]1CN(c2ccnn3cc(-c4cnn(C5CN(C)C5)c4)cc23)C(=O)[C@]1(C#N)C1CC1 [Example 316, (3R,4S)-3-cyclopropyl-4-methyl-1-(6-(1-(1-methylazetidin-3-yl)-1H-pyrazol-4-yl)pyrrolo[1,2-b]pyridazin-4-yl)-2-oxopyrrolidine-3-carbonitrile]
				7.30 to 7.70	5.30 to 6.00	5.30 to 6.00	> 8.30	> 7.00	> 7.00	> 7.00	C[C@@H]1CN(c2ccnn3cc(-c4cnn(C5CCOC5)c4)cc23)C(=O)[C@]1(C#N)C1CC1 (stereo partly drawn) [Example 162, (3R,4S)-3-cyclopropyl-4-methyl-2-oxo-1-(6-(1-(tetrahydrofuran-3-yl)-1H-pyrazol-4-yl)pyrrolo[1,2-b]pyridazin-4-yl)pyrrolidine-3-carbonitrile]
				< 7.00	5.00 to 5.30	5.30 to 6.00	> 8.30	6.00 to 7.00	6.00 to 7.00	6.00 to 7.00	C[C@@H]1CN(c2ccnn3cc(-c4cnn(S(C)(=O)=O)c4)cc23)C(=O)[C@]1(C#N)C1CC1 [Example 163, (3R,4S)-3-cyclopropyl-4-methyl-1-(6-(1-(methylsulfonyl)-1H-pyrazol-4-yl)pyrrolo[1,2-b]pyridazin-4-yl)-2-oxopyrrolidine-3-carbonitrile]
				7.00 to 7.30	5.30 to 6.00	5.30 to 6.00	> 8.30	6.00 to 7.00	6.00 to 7.00	6.00 to 7.00	C[C@@H]1CN(c2ccnn3cc(-c4ccc(N(C)C)nc4)cc23)C(=O)[C@]1(C#N)C1CC1 [Example 62, (3R,4S)-3-cyclopropyl-1-(6-(6-(dimethylamino)pyridin-3-yl)pyrrolo[1,2-b]pyridazin-4-yl)-4-methyl-2-oxopyrrolidine-3-carbonitrile]
> 8.30	> 7.00	6.00 to 7.00	> 7.00	7.70 to 8.30	5.30 to 6.00	6.00 to 7.00					C[C@@H]1CN(c2nc(-c3cnc4[nH]ccc4c3)cn3nccc23)C(=O)[C@]1(C#N)C1CC1 [Example 230, (3R,4S)-1-(6-(1H-pyrrolo[2,3-b]pyridin-5-yl)pyrazolo[1,5-a]pyrazin-4-yl)-3-cyclopropyl-4-methyl-2-oxopyrrolidine-3-carbonitrile]
				< 7.00	< 5.00	5.30 to 6.00	7.70 to 8.30	6.00 to 7.00	6.00 to 7.00	6.00 to 7.00	Cn1cc(-c2cc3c(N4CC[C@@](C#N)(C5CC5)C4=O)ccnn3c2)c(F)n1 [Example 12, (S)-3-cyclopropyl-1-(6-(3-fluoro-1-methyl-1H-pyrazol-4-yl)pyrrolo[1,2-b]pyridazin-4-yl)-2-oxopyrrolidine-3-carbonitrile]
				< 7.00	< 5.00	5.00 to 5.30	7.30 to 7.70	6.00 to 7.00	6.00 to 7.00	6.00 to 7.00	C[C@@H]1CN(c2ccnn3cc(-c4cnn(C)c4)nc23)C(=O)[C@]1(C#N)C1CC1 [Example 182, (3R,4S)-3-cyclopropyl-4-methyl-1-(2-(1-methyl-1H-pyrazol-4-yl)imidazo[1,2-b]pyridazin-8-yl)-2-oxopyrrolidine-3-carbonitrile]
